Tests used:
Assay type in all cases: in vivo
[1] = system: Corn (Sweet Corn); assay: Corn safety laboratory test; settings: for Fresh Weight / Fresh Weight Control Efficacy: 15 days after application
[2] = system: Corn (Zhengdan 958); assay: Corn safety laboratory test; settings: for Fresh Weight / Fresh Weight Control Efficacy: 15 days after application
[3] = system: corn; assay: Corn safety laboratory test, visual observation and overall conclusion
Method: Three corn varieties: Zhengdan 958, white waxy corn, and sweet corn (Runhua sweet corn).
The soil used for the test was a mixture of surface 20 cm loam and vermiculite, mixed in a volume ratio of 3:1 to form a culture soil. The test corn was cultured in a glass greenhouse with a temperature ranging from 25° C. to 35° C. and under natural light.
A measured quantity of corn seeds were sown in plastic pots with a diameter of 15 cm, and covered with 2-3 cm of soil. The ports were then placed in enamel trays filled with water, and watered by bottom irrigation. After sowing, the pots were transferred to the glass greenhouse for cultivation and growth.
In the corn safety test, dosages were set for the two Compounds (Compound I of the present invention and Compound II of the present invention) and the control herbicide Topramezone, which were 15, 30, 60, and 120 grams of active ingredient per hectare respectively. In addition, a blank control was also prepared.
The required amount of the herbicide was accurately measured out, an appropriate amount of emulsifier and organic solvent were added to dissolve the herbicide, and then a certain amount of water was added therein until the herbicide was diluted to the required dosage by using the serial dilution method for standby.
Corn stems and leaves were uniformly sprayed at the 3-4-leaf stage.
(§1) The ASS-3 automatic control spraying system with a fan-shaped nozzle was used indoors for herbicide application. Depending on the nozzle pressure and flow rate, 50 mL of herbicide solution was applied to a spraying area of 1.1 m^2 (which was equivalent to the water consumption of 30 L per mu). The system's operating speed was calibrated. The plastic pots to be treated were arranged evenly on the spraying platform to ensure uniform treatment. The spray pressure was set to 0.35 MPa, and the flow rate of the fan-shaped nozzle was set to 800 mL/min. The spraying was carried out in sequence from the low dosage to the high dosage. Each treatment was repeated three times.
(§2) The herbicide was applied once. After spraying, the pots were air-dried for one day and then placed in the glass greenhouse. Regular watering was conducted to maintain moisture.
After application of the herbicide, whether there were any phytotoxic symptoms in the corn for each treatment was recorded. If yes, the phytotoxicity symptoms and grade were recorded in detail. 15 days after application, the fresh weight of the corn in each treatment was measured and the fresh weight control efficacy was calculated to assess the safety of the herbicide on the corn.

[4] = system: Echinochloa crusgalli; assay: Laboratory bioactivity efficacy test 2.2 (foliar spray); settings: fresh weight control efficacy 20 days post-application
Method: (§3) • grassy weeds: Digitaria sanguinalis, Eleusine indica, Echinochloa crusgalli; • Broadleaf weeds: Portulaca oleracea, Abutilon theophrasti medicus. 2.2.2 Test Conditions
(§4) The soil used for the test was a mixture of surface 20 cm loam and vermiculite, mixed in a volume ratio of 3:1 to form a culture soil. The test weeds were cultured in a glass greenhouse with a temperature ranging from 25° C. to 35° C. and under natural light.
(§5) Quantified seeds of Digitaria sanguinalis, Eleusine indica, Echinochloa crusgalli, Portulaca oleracea, and Abutilon theophrasti medicus were sown in plastic pots with a diameter of 9 cm, and covered with 1-2 mm of soil. The ports were then placed in enamel trays filled with water, and watered by bottom irrigation. After the water seeped to the soil surface, the pots were transferred to the glass greenhouse for standby.
(§6) Five dosages were set for Compound I, Compound II and the control herbicide Topramezone, which were 3.75, 7.5, 15, 30 and 60 grams of active ingredient per hectare respectively. In addition, a blank control was also prepared.
(§7) The required amount of the herbicide was accurately measured out and directly added with water, which was diluted to the required dosage by using the serial dilution method for standby.
as §1, with “test was conducted on grassy weeds at the two-leaf and one-heart stage, Abutilon theophrasti medicus at the 2-true-leaf stage, and Portulaca oleracea at the 3-5-leaf stage, with the stems and leaves both sprayed uniformly. The ASS-4” for “ASS-3”, “two to four” for “three”
as §2
(§8) The damage symptoms of the weeds (such as growth inhibition, chlorosis, malformation, etc.) were carefully recorded at 3, 7, 10, and 20 days after herbicide application. A visual comparison of the herbicide effectiveness was made. At 20 days post-application, the fresh weight of the aboveground parts of the weeds from each treatment group was measured, and the fresh weight control efficacy was calculated.
(§9) The treatment results were calculated according to the following formula: weed fresh weight control efficacy (%)=(control fresh weight−treatment fresh weight)/control fresh weight×100.
(§10) A DPS statistical software was used to conduct regression analysis on the logarithmic values of the herbicide dosage and the probit values of the weed fresh weight control efficacy, and the correlation coefficient, GR50, GR90, and the 95% confidence interval were calculated.

[5] = system: Abutilon theophrasti medicus; assay: as above; settings: for Visual observation of weeds: 3 to 7 days after application, broadleaf weeds like Abutilon theophrasti medicus; for GR90 (95% confidence interval) / GR50 (95% confidence interval): fresh weight control efficacy 20 days post-application
Method: as §3, §4, §5, §6, §7
as §1, with “test was conducted on grassy weeds at the two-leaf and one-heart stage, Abutilon theophrasti medicus at the 2-true-leaf stage, and Portulaca oleracea at the 3-5-leaf stage, with the stems and leaves both sprayed uniformly. The ASS-4” for “ASS-3”, “two to four” for “three”
as §2, §8, §9, §10

[6] = system: Digitaria sanguinalis; assay: as above; settings: fresh weight control efficacy 20 days post-application
Method: as §3, §4, §5, §6, §7
as §1, with “test was conducted on grassy weeds at the two-leaf and one-heart stage, Abutilon theophrasti medicus at the 2-true-leaf stage, and Portulaca oleracea at the 3-5-leaf stage, with the stems and leaves both sprayed uniformly. The ASS-4” for “ASS-3”, “two to four” for “three”
as §2, §8, §9, §10

[7] = system: Eleusine indica; assay: as above; settings: fresh weight control efficacy 20 days post-application
Method: as §3, §4, §5, §6, §7
as §1, with “test was conducted on grassy weeds at the two-leaf and one-heart stage, Abutilon theophrasti medicus at the 2-true-leaf stage, and Portulaca oleracea at the 3-5-leaf stage, with the stems and leaves both sprayed uniformly. The ASS-4” for “ASS-3”, “two to four” for “three”
as §2, §8, §9, §10

[8] = system: Portulaca oleracea; assay: as above; settings: for GR50 (95% confidence interval) / GR90 (95% confidence interval): fresh weight control efficacy 20 days post-application
Method: as §3, §4, §5, §6, §7
as §1, with “test was conducted on grassy weeds at the two-leaf and one-heart stage, Abutilon theophrasti medicus at the 2-true-leaf stage, and Portulaca oleracea at the 3-5-leaf stage, with the stems and leaves both sprayed uniformly. The ASS-4” for “ASS-3”, “two to four” for “three”
as §2, §8, §9, §10

[9] = Sweet Corn, dosage 15 g a.i./ha
[10] = Sweet Corn, dosage 30 g a.i./ha
[11] = Sweet Corn, dosage 60 g a.i./ha
[12] = Sweet Corn, dosage 120 g a.i./ha
[13] = Zhengdan 958, dosage 15 g a.i./ha
[14] = Zhengdan 958, dosage 30 g a.i./ha
[15] = Zhengdan 958, dosage 60 g a.i./ha
[16] = Zhengdan 958, dosage 120 g a.i./ha

In the case of COC(=O)OC(C)Oc1c(C(=O)c2ccc(S(C)(=O)=O)c(C3=NOCC3)c2C)cnn1C (stereo not drawn) [Compound I, 1-((4-(3-(4,5-dihydroisoxazol-3-yl)-2-methyl-4-(methylsulfonyl)benzoyl)-1-methyl-1H-pyrazol-5-yl)oxy)ethyl methyl carbonate], the “Corn Growth Status” value ([1]; in vivo) is reported as “Good, Normal Growth”, the “Growth of corn / phytotoxicity (in words)” value ([1]; in vivo) is reported as “normal, without causing any phytotoxicity” and the “Corn Growth Status” value ([2]; in vivo) is reported as “Good, Normal Growth”. For the same compound, the “Growth of corn / phytotoxicity (in words)” value ([2]; in vivo) was “normal, without causing any phytotoxicity”, the “Visual observation of corn” value ([3]; in vivo) was “all normal” and the GR50 [4] was 6.03 g a.i./ha. For the same compound, the GR90 [4] was 11.04 g a.i./ha, the “Visual observation of weeds” value [5] was “directly dried up and died” and the “GR90 (95% confidence interval)” value ([5]; Abutilon theophrasti Medicago) was 9.48 (4.30-13.21) g a.i./ha. For the same compound, the “GR50 (95% confidence interval)” value ([5]; Abutilon theophrasti medicus) was 3.16 (0.37-5.92) g a.i./ha, the GR50 [6] was 10.92 g a.i./ha and the GR90 [6] was 35.88 g a.i./ha. For the same compound, the GR50 [7] was 2.71 g a.i./ha, the GR90 [7] was 14.85 g a.i./ha and the “Control efficacy compared with Topramezone (in words)” value [8] was “significantly better control efficacy”. The “Efficacy relative to that of Topramezone” value [8] was “approximately 3.8 times”, the “GR50 (95% confidence interval)” value [8] was 3.83 (2.36-5.16) g a.i./ha and the “GR90 (95% confidence interval)” value [8] was 9.29 (7.46-10.81) g a.i./ha.

In the case of Cc1c(C(=O)c2cnn(C)c2OC(=O)C(C)(C)C)ccc(S(C)(=O)=O)c1C1=NOCC1 [Compound II, 4-(3-(4,5-dihydroisoxazol-3-yl)-2-methyl-4-(methylsulfonyl)benzoyl)-1-methyl-1H-pyrazol-5-yl pivalate], the “Corn Growth Status” value ([1]; in vivo) is reported as “Good, Normal Growth”, the “Safety to corn (in words)” value ([1]; in vivo) is reported as “safe” and the “Corn Growth Status” value ([2]; in vivo) is reported as “Good, Normal Growth”. For the same compound, the “Growth of corn / phytotoxicity (in words)” value ([2]; in vivo) was “normal, without causing any phytotoxicity”, the GR50 [4] was 6.13 g a.i./ha and the GR90 [4] was 12.64 g a.i./ha. The “Visual observation of weeds” value [5] was “directly dried up and died”, the “GR50 (95% confidence interval)” value ([5]; Abutilon theophrasti Medicago) was 1.19 (0.26-2.46) g a.i./ha and the “GR90 (95% confidence interval)” value ([5]; Abutilon theophrasti Medicago) was 7.90 (4.76-10.66) g a.i./ha. The GR50 [6] was 12.53 g a.i./ha, the GR90 [6] was 48.19 g a.i./ha and the GR50 [7] was 3.79 g a.i./ha. The GR90 [7] was 19.79 g a.i./ha, the “Control efficacy compared with Topramezone (in words)” value [8] was “slightly better control efficacy” and the “GR50 (95% confidence interval)” value [8] was 5.57 (4.07-7.00) g a.i./ha. For the same compound, the “GR90 (95% confidence interval)” value [8] was 28.20 (23.41-35.73) g a.i./ha.

In the case of Cc1c(C(=O)c2cnn(C)c2O)ccc(S(C)(=O)=O)c1C1=NOCC1 [Topramezone], the “Corn Growth Status” value [1, 9] is reported as “Good, Normal Growth”, the “Fresh Weight” value [1, 9] is reported as 7.6 g and the “Fresh Weight Control Efficacy” value [1, 9] is reported as −2.0%. For the same compound, the “Corn Growth Status” value [1, 10] was “Good, Normal Growth”, the “Fresh Weight” value [1, 10] was 7.4 g and the “Fresh Weight Control Efficacy” value [1, 10] was −0.3%. The “Corn Growth Status” value [1, 11] was “Good, Normal Growth”, the “Fresh Weight” value [1, 11] was 7.4 g and the “Fresh Weight Control Efficacy” value [1, 11] was −0.3%. For the same compound, the “Corn Growth Status” value [1, 12] was “Good, Normal Growth”, the “Fresh Weight” value [1, 12] was 7.3 g and the “Fresh Weight Control Efficacy” value [1, 12] was 1.0%. The “Safety to corn (in words)” value ([1]; sweet corn, all dosages) was “safe”, the “Growth of corn / phytotoxicity (in words)” value ([2]; Zhengdan 958, all dosages) was “normal” and the “Corn Growth Status” value [2, 13] was “Good, Normal Growth”. The “Fresh Weight” value [2, 13] was 15.2 g, the “Fresh Weight Control Efficacy” value [2, 13] was −0.5% and the “Corn Growth Status” value [2, 14] was “Good, Normal Growth”. For the same compound, the “Fresh Weight” value [2, 14] was 14.9 g, the “Fresh Weight Control Efficacy” value [2, 14] was 1.8% and the “Corn Growth Status” value [2, 15] was “Good, Normal Growth”. The “Fresh Weight” value [2, 15] was 15.2 g, the “Fresh Weight Control Efficacy” value [2, 15] was −0.5% and the “Corn Growth Status” value [2, 16] was “Good, Normal Growth”. For the same compound, the “Fresh Weight” value [2, 16] was 15.6 g, the “Fresh Weight Control Efficacy” value [2, 16] was −2.8% and the “Visual observation of corn” value ([3]; 3 to 7 days after application) was “safe for corn”. The “Visual observation of corn” value ([3]; 10 days after application) was “safe for corn”, the “Visual observation of corn” value ([3]; 15 days after application) was “basically growing normally” and the “Overall safety for corn” value ([3]; Zhengdan 958, waxy corn and sweet corn) was “high safety levels”. The GR50 [4] was 6.52 g a.i./ha, the GR90 [4] was 12.92 g a.i./ha and the “Visual observation of weeds” value [5] was “directly dried up and died”. For the same compound, the “GR50 (95% confidence interval)” value ([5]; Abutilon theophrasti Medicago) was 2.02 (0.77-3.38) g a.i./ha, the “GR90 (95% confidence interval)” value ([5]; Abutilon theophrasti Medicago) was 8.83 (6.22-11.10) g a.i./ha and the GR50 [6] was 10.09 g a.i./ha. For the same compound, the GR90 [6] was 36.27 g a.i./ha, the GR50 [7] was 2.75 g a.i./ha and the GR90 [7] was 16.07 g a.i./ha. The “GR50 (95% confidence interval)” value [8] was 7.56 (6.00-9.07) g a.i./ha and the “GR90 (95% confidence interval)” value [8] was 35.74 (29.42-46.03) g a.i./ha.

— patent US12550899B2, “Topramezone derivative and use thereof” (priority 2023, dated 2026)
